Where a SMILES comes first, the peptide text is derived from it. [ ]: non-standard residue; d: D form. The star is where a group is joined. Dolaproine = CO[C@@H]([C@@H]1CCCN1)[C@@H](C)C(=O)O; Dil = CC[C@H](C)[C@H](NC)[C@@H](CC(=O)O)OC; NMe2Val = CC(C)[C@@H](C(=O)*)N(C)C
How the values were obtained:
HCC1954 cells = experiment: Cell Viability Assay (CellTiter-Glo), HCC1954; type: cell-based
Description: (§1) Compounds and conjugates were tested for their activity using the Cell Viability Assay (CellTiter-Glo® Luminescent Cell Viability Assay from Promega), which measures the number of viable cells in culture after treatment with the inventive compounds or conjugates for 72 hours based on quantitation of the ATP present (Cell Viability. IC50).

NCI-N87 cells = experiment: Cell Viability Assay (CellTiter-Glo), NCI-N87; type: cell-based
Description: as §1

SK-BR-3 cells = experiment: Cell Viability Assay (CellTiter-Glo), SK-BR-3; type: cell-based
Description: as §1

BT-474 cells = experiment: Cell Viability Assay (CellTiter-Glo), BT-474; type: cell-based
Description: as §1

MCF7 breast cancer cell = experiment: Cell Viability Assay (CellTiter-Glo), MCF7; type: cell-based; conditions: MCF7, Table 2 (another assay)
Description: as §1

[1] = system: HER2 expressing cancer cell lines; conditions: for activity compared with free Auristatin F, in words: summary of Table 1
Description: Three HER2 expressing breast cancer cell lines (BT474, HCC1954 and SK-BR-3) and HER2 expressing gastric cancer cell line NCI-N87 were used in the viability assay. The cells were placed in opaque-walled 96-well plate and allowed to adhere overnight at 37° C. in 5% CO2 and 95% humidity atmosphere. Cell density per well: 7000 (BT474), 3000 (HCC1954), 5000 (NCI-N87), 4000 (SK-BR-3). The test compounds or conjugates were added to experimental wells, and incubate at 37° C. in 5% CO2 and 95% humidity atmosphere for 72 hours. The plates were equilibrated at room temperature for 30 min. CellTiter-Glo® reagent equal to the volume of cell culture medium present in each well was added. After cell lysis on an orbital shaker for 2 min, the plate was incubated at room temperature for 10 min. Luminescence were recorded using EnVision® Multilabel Reader (PerkinElmer, 2104-0010A). GraphPad Prism 5.0 was used to analyze the data. The dose response curves were determined, and the IC50 value was calculated.
Another assay measured the IC50 values for compounds 24 and 25 on the same cell lines and MCF7 breast cancer cell.

[2] = HCC1954, Table 2 (another assay)
[3] = NCI-N87, Table 2 (another assay)
[4] = SK-BR-3, Table 2 (another assay)
[5] = BT-474, Table 2 (another assay)

| Compound | IC50 (HCC1954 cells; [2]) [nM] | IC50 (NCI-N87 cells; [3]) [nM] | IC50 (SK-BR-3 cells; [4]) [nM] | IC50 (BT-474 cells; [5]) [nM] | IC50 (MCF7 breast cancer cell) [nM] | activity compared with compound 24 and controls, in words ([1]; summary of Table 2, same cell lines and MCF7) | IC50 (HCC1954 cells; HCC1954, 72 hours, Table 1) [nM] | IC50 (NCI-N87 cells; NCI-N87, 72 hours, Table 1) [nM] | IC50 (SK-BR-3 cells; SK-BR-3, 72 hours, Table 1) [nM] | IC50 (BT-474 cells; BT-474, 72 hours, Table 1) [nM] | activity compared with free Auristatin F, in words [1] |
| --- | --- | --- | --- | --- | --- | --- | --- | --- | --- | --- | --- |
| poly(1-hydroxymethylethylene hydroxy-methyl formal)-SPA-(auristatin F 2-(2-hydroxy-ethoxy)-ethylamide L-Alanine)-Trastuzumab [Compound 25] | 0.2 | 0.3 | 0.1 | 0.4 | 3.3 | significant increase in activity as compared to compound 24 |  |  |  |  |  |
| N.N.[Cl][Pt][Cl] [Cisplatin, reference compound] | 6230 | 1660 | 871 | 38500 | 9150 |  | 6050 | 4560 | 1920 | > 100000 |  |
| poly(1-hydroxymethylethylene hydroxy-methyl formal)-SPA-(auristatin F 2-(2-hydroxy-ethoxy)-ethylamide L-Alanine)-maleimide [Compound 14] |  |  |  |  |  |  | 32.2 | > 500 | 48 | 87.9 | activity similar to free Auristatin F |
| poly(1-hydroxymethylethylene hydroxy-methyl formal)-SPA-(auristatin F 2-(2-hydroxy-ethoxy)-ethylamide L-Alanine)-SSPy [Compound 15] |  |  |  |  |  |  | 23.9 | > 500 | 37 | 57.4 | activity similar to free Auristatin F |
| poly(1-hydroxymethylethylene hydroxy-methyl formal)-SPA-(auristatin F 2-(2-hydroxy-ethoxy)-ethylamide L-Alanine)-(Trastuzumab-MCC) [Compound 16] |  |  |  |  |  |  | 0.13 | 55.6 | 22 | 0.39 | inhibition of HER2 increases significantly |
| poly(1-hydroxymethylethylene hydroxy-methyl formal)-SPA-(auristatin F 2-(2-hydroxy-ethoxy)-ethylamide L-Alanine)-Trastuzumab [Compound 17] |  |  |  |  |  |  | < 0.05 | < 0.05 | < 0.05 | < 0.05 | inhibition of HER2 increases significantly |
| CC[C@H](C)[C@@H]([C@@H](CC(=O)N1CCC[C@H]1[C@H](OC)[C@@H](C)C(=O)N[C@@H](Cc1ccccc1)C(=O)O)OC)N(C)C(=O)[C@@H](NC(=O)[C@H](C(C)C)N(C)C)C(C)C [Auristatin F, reference compound] (NMe2Val-V[Dil][Dolaproine]F-OH) | 200 | 386 | 233 | 1540 | 1950 |  | 38.2 | 69.8 | 51 | 264 |  |
| poly(1-hydroxymethylethylene hydroxy-methyl formal)-SPA-(auristatin F 2-(2-hydroxy-ethoxy)-ethylamide L-Alanine)-maleimide [Compound 24] | 45.9 | 91.5 | 56.6 | 58 | 230 |  |  |  |  |  |  |

Reference: patent US11529422B2, “Polymer linkers and their uses” (priority 2016, dated 2022)
